Tests used:
[1] = system: HCT116 MTAP wild-type cells; test: Human colon cancer HCT116 cell proliferation inhibition test (CellTiter-Glo, 6 days), MTAP wild-type cells; type: cell-based; details: HCT-116, 144 h
Procedure: (§1) 1. HCT116 MTAP knockout and MTAP wild-type cells were plated in 96-well flat bottom plates, and cultured overnight with McCoy's 5A medium containing 10% fetal bovine serum+1% penicillin-streptomycin at 37° C. and 5% CO2.
(§2) 2. On the next day, the compound was dissolved with DMSO, diluted with DMSO and medium successively and transferred to the cell plate. The final concentration of the compound was 10 μM, the compound was diluted 4 times, with 9 concentration gradients, and DMSO control was added.
(§3) 3. Cells that have not been treated with the compound were removed. CellTiter-Glo Luminescent Cell Viability Assay (Promega) was used to detect cell viability, the operation was performed with reference to the package insert of the kit, and then the cell plate was placed on EnVision Multilabel Reader to detect the cold light signal.
(§4) 4. Meanwhile, the cell plate treated with the compound was cultured at 37° C. and 5% CO2 for 6 consecutive days.
(§5) 5. Then, CellTiter-Glo was also used to detect cell viability.
(§6) 6. Finally, the four-parameter dose-response curve module of GraphPad Prism v 9.2.0 software was used to plot the dose-response curve and calculate the IC50 for proliferation inhibition (unit: nM).

[2] = system: HCT116 MTAP knockout cells; test: Human colon cancer HCT116 cell proliferation inhibition test (CellTiter-Glo, 6 days), MTAP knockout cells; type: cell-based; details: HCT-116, 144 h
Procedure: as §1, §2, §3, §4, §5, §6

[3] = Pharmacokinetic assay in mice, blood-brain barrier penetration analysis (Kp); type: in vivo; details: male, mouse, ICR mice, PO single dose 10 mg/kg, brain vs plasma, read-out: Kp (4 h after administration)
Procedure: The purpose of this trial is to study the pharmacokinetic behavior of some compounds of the present invention, and the administration method is: ICR mice were orally administered (PO) a single dose, at a dose of 10 mg/kg.
ICR mice male N=3 original source: Shanghai Sippr-Bk Lab Animal Co., Ltd.
The compounds were weighed and dissolved in 20% PG+10% Solutol HS15+70% pH 3 citrate buffer, respectively, shaken well and sonicated to prepare colorless clear solutions. 9 mice were administered orally after an overnight fast. The dose was 10 mg/kg.
• 1) About 90 μL blood was collected via the submandibular vein per time point, heparin sodium anticoagulant was added, the sample was placed on ice after collection, and plasma was centrifuged within 1 hour (centrifugation conditions: 8,000 rpm, 6 minutes, 2-8° C.). • 2) The blood collection time points were 1, 4, and 24 h. The samples were stored in a refrigerator at −20° C. • 3) The plasma sample was 40 μL, 160 μL of ice-cold acetonitrile containing internal standard was added, vortexed for 3 minutes, and centrifuged at 11,000 rpm for 5 minutes. • 4) 100 μL of the supernatant was taken and added to 100 μL of water, 5 μL of the sample was taken and injected into LC/MS/MS for analysis.
AUC or concentration in brain or plasma measured by using the above method was used to calculate the Kp. Kp refers to the relationship between drug concentrations in brain and blood and is used to evaluate the ability of a drug to penetrate the blood-brain barrier. Post-dose Kp was calculated by the following formula: […]

IC50 [1] [nM] | IC50 [2] [nM] | Kp at 4 h [3] | SMILES
79 | 3.6 | 0.4 | Nc1nc2ccc(C(=O)N(CC3CC3)[C@@H]3COc4cc(C(F)(F)F)ccc43)cc2c2cnccc12 [Example 192, (S)-5-amino-N-(cyclopropylmethyl)-N-(6-(trifluoromethyl)-2,3-dihydrobenzofuran-3-yl)benzo[c][2,6]naphthyridin-9-carboxamide]
1560 | 35 | 0.5 | Nc1nc2ccc(C(=O)N(CC3CC3)[C@@H]3CCc4cc(C(F)(F)F)ccc43)cc2c2cnccc12 [Example 219, (R)-5-amino-N-(cyclopropylmethyl)-N-(5-(trifluoromethyl)-2,3-dihydro-1H-inden-1-yl)benzo[c][2,6]naphthyridin-9-carboxamide]
9470 | 286 |  | Nc1nc2ccc(C(=O)N(C3CC3)C3CCc4nc(C(F)(F)F)ccc43)cc2c2cnccc12 (stereo not drawn) [Example 225, 5-amino-N-cyclopropyl-N-(2-(trifluoromethyl)-6,7-dihydro-5H-cyclopenta[b]pyridin-5-yl)benzo[c][2,6]naphthyridin-9-carboxamide]
1950 | 50 |  | Cn1cc(N(C(=O)c2ccc3nc(N)c4ccncc4c3c2)[C@@H]2CCc3cc(C(F)(F)F)ccc32)cn1 [Example 226, (R)-5-amino-N-(1-methyl-1H-pyrazol-4-yl)-N-(5-(trifluoromethyl)-2,3-dihydro-1H-inden-1-yl)benzo[c][2,6]naphthyridin-9-carboxamide]
1070 | 85 |  | CN(C(=O)c1ccc2nc(N)c3ccncc3c2c1)[C@@H]1CCc2cc(C(F)(F)F)ccc21 [Example 227, (R)-5-amino-N-methyl-N-(5-(trifluoromethyl)-2,3-dihydro-1H-inden-1-yl)benzo[c][2,6]naphthyridin-9-carboxamide]
61 | 3 |  | Cn1cc(N(C(=O)c2cc3c(cc2F)nc(N)c2cnn(C)c23)[C@@H]2CCc3cc(C(F)(F)F)ccc32)cn1 [Example 229, (R)-4-amino-7-fluoro-1-methyl-N-(1-methyl-1H-pyrazol-4-yl)-N-(5-(trifluoromethyl)-2,3-dihydro-1H-inden-1-yl)-1H-pyrazolo[4,3-c]quinolin-8-carboxamide]
145 | 13 |  | Cc1cc2nc(N)c3ccncc3c2cc1C(=O)N(CC1CC1)[C@@H]1COc2nc(C(F)(F)F)ccc21 [Example 230, (S)-5-amino-N-(cyclopropylmethyl)-8-methyl-N-(6-(trifluoromethyl)-2,3-dihydrofuro[2,3-b]pyridin-3-yl)benzo[c][2,6]naphthyridin-9-carboxamide]
604 | 15 |  | Nc1nc2cc(F)c(C(=O)N(CC3CC3)[C@@H]3COc4nc(C(F)(F)F)ccc43)cc2c2cnccc12 [Example 231, (S)-5-amino-N-(cyclopropylmethyl)-8-fluoro-N-(6-(trifluoromethyl)-2,3-dihydrofuro[2,3-b]pyridin-3-yl)benzo[c][2,6]naphthyridin-9-carboxamide]
363 | 10 |  | Nc1nc2cc(Cl)c(C(=O)N(CC3CC3)[C@@H]3COc4nc(C(F)(F)F)ccc43)cc2c2cnccc12 [Example 232, (S)-5-amino-8-chloro-N-(cyclopropylmethyl)-N-(6-(trifluoromethyl)-2,3-dihydrofuro[2,3-b]pyridin-3-yl)benzo[c][2,6]naphthyridin-9-carboxamide]
102 | 33 | 0.4 | Cc1cc2nc(N)c3ccncc3c2cc1C(=O)N(CC1CC1)[C@@H]1COc2cc(C(F)(F)F)ccc21 [Example 233, (S)-5-amino-N-(cyclopropylmethyl)-8-methyl-N-(6-(trifluoromethyl)-2,3-dihydrobenzofuran-3-yl)benzo[c][2,6]naphthyridin-9-carboxamide]
224 | 20 | 0.7 | Nc1nc2cc(F)c(C(=O)N(CC3CC3)[C@@H]3COc4cc(C(F)(F)F)ccc43)cc2c2cnccc12 [Example 234, (S)-5-amino-N-(cyclopropylmethyl)-8-fluoro-N-(6-(trifluoromethyl)-2,3-dihydrobenzofuran-3-yl)benzo[c][2,6]naphthyridin-9-carboxamide]
176 | 21 | 0.7 | Nc1nc2cc(Cl)c(C(=O)N(CC3CC3)[C@@H]3COc4cc(C(F)(F)F)ccc43)cc2c2cnccc12 [Example 235, (S)-5-amino-8-chloro-N-(cyclopropylmethyl)-N-(6-(trifluoromethyl)-2,3-dihydrobenzofuran-3-yl)benzo[c][2,6]naphthyridin-9-carboxamide]
227 | 9 |  | Cc1cc2nc(N)c3ccncc3c2cc1C(=O)N(CC1CC1)[C@@H]1CCc2nc(C(F)(F)F)ccc21 [Example 236, (R)-5-amino-N-(cyclopropylmethyl)-8-methyl-N-(2-(trifluoromethyl)-6,7-dihydro-5H-cyclopenta[b]pyridin-5-yl)benzo[c][2,6]naphthyridin-9-carboxamide]
788 | 20 |  | Nc1nc2cc(F)c(C(=O)N(CC3CC3)[C@@H]3CCc4nc(C(F)(F)F)ccc43)cc2c2cnccc12 [Example 237, (R)-5-amino-N-(cyclopropylmethyl)-8-fluoro-N-(2-(trifluoromethyl)-6,7-dihydro-5H-cyclopenta[b]pyridin-5-yl)benzo[c][2,6]naphthyridin-9-carboxamide]
264 | 14 |  | Nc1nc2cc(Cl)c(C(=O)N(CC3CC3)[C@@H]3CCc4nc(C(F)(F)F)ccc43)cc2c2cnccc12 [Example 238, (R)-5-amino-8-chloro-N-(cyclopropylmethyl)-N-(2-(trifluoromethyl)-6,7-dihydro-5H-cyclopenta[b]pyridin-5-yl)benzo[c][2,6]naphthyridin-9-carboxamide]
696 | 54 |  | CCN(C(=O)c1cc2c(cc1F)nc(N)c1cnn(C)c12)C1CCc2cc(C(F)(F)F)ccc21 (stereo not drawn) [Reference Compound 1, reference compound]
702 | 25 | 0.1 | CN(C(=O)c1ccc2nc(N)c3ccncc3c2c1)[C@@H]1COc2cc(C(F)(F)F)ccc21 [Reference Compound 2, reference compound]
278 | 9 |  | Cn1cc(N(Cc2ccc(C(F)(F)F)cn2)C(=O)c2cc3c(cc2F)nc(N)c2cnn(C)c23)cn1 [compound 3, reference compound]

— patent US20250320202A1, “PRMT5 INHIBITOR, PREPARATION METHOD THEREFOR, AND PHARMACEUTICAL USE THEREOF” (Abbisko Therapeutics Co., Ltd., priority 2022, published 2025)
